In US5461176A, “Processes for preparing bis-naphthalimides containing amino-acid derived linkers” (The Du Pont Merck Pharmaceutical Company, priority 1994, dated 1995):
Values after ≈ are worked out from the molar mass of the structure shown. Read-outs that look alike come from different tables or passages of the source.

How the values were obtained:
DLD-2 human colon tumor = assay: In vivo human tumor xenograft model, DLD-2 human colon tumor in nude mice; conditions: i.v. once daily for nine consecutive days, tumor growth inhibition, NCI criteria
From the text: (§1) The DLD-2 human colon tumor, MX-1 human mammary carcinoma, and LX-1 human lung tumor were originally obtained from a surgically removed primary colon carcinoma, breast tumor, and non-small lung carcinoma, respectively. The human tumor lines were maintained by serial passage in athymic nude mice. The MX-1 human mammary carcinoma and LX-1 human lung tumor are established tumors used by the NCI. The DLD-2, MX-1, and LX-1 tumor models have been well characterized.
(§2) The mice used in these experiments were outbred Swiss mice or BALB/c mice bearing the nude (nu/nu) gene. On day 0 male and female mice weighing 22-30 g are inoculated with 0.2 mL of a 25% tumor mince. This mince is prepared by mincing fresh tumor tissue, grown subcutaneously in passage mice, in sterile physiological saline. Palpable tumors weighing approximately 50 mg appear in the mice within 7-10 days after inoculation. The mice are pair matched by tumor weight and sex into groups of ten each and the test compounds and vehicle control are administered intravenously (i.v.) once daily for nine consecutive days. A >20% decrease in body weight on day 5 following compound administration is considered an indication of toxicity. Tumor measurements and body weights are recorded once a week. Fifteen to 18 days after the initial injection the mice are weighed, sacrificed and the tumors excised and weighed.
(§3) The efficacy of the test compounds is determined by the extent of tumor growth inhibition in treated versus vehicle-treated control mice. Initial tumor weights (mg) are calculated from the tumor dimensions (mm) measured from caliper measurements, using the formula for a prolate ellipsoid (mg of tumor weight=(length×width^2)/2). Net tumor weights are calculated for each of the treated groups and the vehicle-treated control group by subtracting the initial tumor weight from the final tumor weight on day 15. Results are expressed as a percentage decrease relative to the mean tumor weight for the control vehicle-treated group. [formula]
(§4) The criteria of the National Cancer Institute (NCI) for activity in the in vivo cancer models were used. Tumor growth inhibition of 58-89% in the DLD-2 assay is considered moderate activity and inhibition of ≥90% is condidered good to excellent activity.

[1] = test system: MX-1 human mammary carcinoma; assay: In vivo human tumor xenograft model, MX-1 human mammary carcinoma in nude mice; conditions: i.v. once daily for nine consecutive days, NCI criteria
From the text: as §1, §2, §3, §4

[2] = test system: murine leukemia L1210 cells; assay: In vitro growth inhibition of L1210 cells (MTT); format: cell-based; conditions: Mus musculus
Protocol: L1210 cells were maintained in RPMI-1640 a medium supplemented with 10% heat inactivated fetal bovine serum and […] (RPMI-L). B16 cells were maintained in RPMI-1640 medium supplemented with 15% heat inactivated fetal bovine serum and antiobiotics (RPMI-C).
Exponentially growing murine leukemia L1210 cells (1×10^3 cells) in 0.1 mL medium were seeded on day 0 in a 96-well microtiter plate. On day 1, […] aliquot of medium containing graded concentrations of test analogs was added to the initial volume. After incubation at 37° C. in a humidified incubator for 3 days, the plates were centrifuged briefly and […] of the growth medium was removed. Cell cultures were incubated with 50 μL of 3-(4,5-dimethylthiazol-2-yl)-2,5-diphenyltetrazolium bromide (MTT; 1 mg/ml in Dulbecco's phosphate buffer saline) for 4 hours at 37° C. The resulting purple formazan precipitate was solubilized with 200 μL of 0.04N HCl in isopropyl alcohol. Absorbance was read in a Titertek Multiskan MCC scaning well spectrophotometer (Flow Laboratories) at a test wavelength of 570 nm and a reference wavelength of 630 nm.
The ID50 values were determined by a computer program that fit all of the data (8 determinations per concentration and 12 concentrations per test analog) to the following equation:
Y=((Am-Ao)/(1+(X/ID50)n))+Ao
where: Am=absorbance of the control cells; Ao=absorbance of the cells in the presence of highest drug concentration; Y=observed absorbance; X=drug concentration; ID50 =dose of drug that inhibits the growth of cells to one half that of the control cells.

LX-1 human lung tumor = assay: In vivo human tumor xenograft model, LX-1 human lung tumor in nude mice; conditions: i.v. once daily for nine consecutive days, NCI criteria
From the text: as §1, §2, §3, §4

SMILES	activity against DLD-2 human colon tumors (DLD-2 human colon tumor)	activity in the MX-1 human breast tumor model [1]	IC50 ([2]; L1210, 72 h, read-out: ID50) [µg/mL]	activity against LX-1 human lung tumors (LX-1 human lung tumor)	IC50 ([2]; 72 h, murine leukemia L1210 cells, 3 days incubation, MTT, read-out: ID50 (the source's name)) [µg/mL]
C[C@H](CNCCNC[C@@H](C)N1C(=O)c2cccc3cc([N+](=O)[O-])cc(c23)C1=O)N1C(=O)c2cccc3cc([N+](=O)[O-])cc(c23)C1=O [Example 3, (R,R)-2,2'-[1,2-ethanediylbis[imino(1-methyl-2,1-ethanediyl)]]-bis[5-nitro-1H-benz[de]isoquinoline-1,3(2H)-dione]methanesulfonate (1:2)]	excellent to outstanding activity	excellent to outstanding activity	0.051 (≈ 0.0817 µM)	good to excellent activity (inhibition of ≥90% is condidered good to excellent activity)	–
C[C@H](CN1C(=O)c2cc([N+](=O)[O-])cc3cc([N+](=O)[O-])cc(c23)C1=O)NCCN[C@H](C)CN1C(=O)c2cc([N+](=O)[O-])cc3cc([N+](=O)[O-])cc(c23)C1=O [Example 32]	–	–	0.057 (≈ 0.0798 µM)	–	–
C[C@@H](CN1C(=O)c2cccc3cc([N+](=O)[O-])cc(c23)C1=O)NCCN[C@@H](C)CN1C(=O)c2cccc3cc([N+](=O)[O-])cc(c23)C1=O [Example 27, (S,S)-2,2'-[1,2-ethanediylbis[imino(2-methyl-2,1-ethanediyl)]]-bis[5-nitro-1H-benz[de]isoquinoline-1,3(2H)-dione]methanesulfonate (1:2)]	excellent to outstanding activity	excellent to outstanding activity	0.0025 (≈ 0.004 µM)	good to excellent activity (inhibition of ≥90% is condidered good to excellent activity)	–
CC(CN1C(=O)c2cccc3cc([N+](=O)[O-])cc(c23)C1=O)NCCNC(C)CN1C(=O)c2cccc3cc([N+](=O)[O-])cc(c23)C1=O (racemic) [Example 30]	excellent to outstanding activity	excellent to outstanding activity	< 0.01	–	–
CS(=O)(=O)O.CS(=O)(=O)O.C[C@H](CN1C(=O)c2cccc3cc([N+](=O)[O-])cc(c23)C1=O)NCCN[C@H](C)CN1C(=O)c2cccc3cc([N+](=O)[O-])cc(c23)C1=O [Example 29, (R,R)-2,2'-[1,2-ethanediylbis[imino(2-methyl)-2,1-ethanediyl)]-bis[5-nitro-1H-benz[de]isoquinoline-1,3(2H)-dione]-methanesulfonate (1:2)]	good to excellent activity (inhibition of ≥90% is condidered good to excellent activity)	excellent to outstanding activity	< 0.01	good to excellent activity (inhibition of ≥90% is condidered good to excellent activity)	–
C[C@@H](CN1C(=O)c2cccc3cc([N+](=O)[O-])cc(c23)C1=O)NCCN[C@@H](C)CN1C(=O)c2cccc3cc([N+](=O)[O-])cc(c23)C1=O (relative stereo) [Example 42]	–	–	< 0.001	–	–
C[C@H](CN1C(=O)c2cccc3c([N+](=O)[O-])ccc(c23)C1=O)NCCN[C@H](C)CN1C(=O)c2cccc3c([N+](=O)[O-])ccc(c23)C1=O [Example 31]	–	–	0.19 (≈ 0.304 µM)	–	–
C[C@@H](CN1C(=O)c2cccc3cccc(c23)C1=O)NCCN[C@@H](C)CN1C(=O)c2cccc3cccc(c23)C1=O [Example 28, (S,S)-2,2'-[1,2-ethanediylbis[imino(2-methyl-2,1-ethanediyl)]]-bis[^1 H-benz[de]isoquinoline-1,3(2H)-dione]methanesulfonate (1:2)]	–	–	–	–	0.21 (≈ 0.393 µM)
CC(CNCCNCC(C)N1C(=O)c2cccc3cc([N+](=O)[O-])cc(c23)C1=O)N1C(=O)c2cccc3cc([N+](=O)[O-])cc(c23)C1=O (racemic) [Example 2, (Racemate+meso)-2,2'-[1,2-ethanediylbis[imino(1-methyl-2,1-ethanediyl)]]-bis[5-nitro-1H-benz[de]isoquinoline-1,3(2H) -dione]methanesulfonate (1:2)]	excellent to outstanding activity	excellent to outstanding activity	0.062 (≈ 0.0993 µM)	good to excellent activity (inhibition of ≥90% is condidered good to excellent activity)	–
C[C@H](CNCCNC[C@H](C)N1C(=O)c2cccc3cc([N+](=O)[O-])cc(c23)C1=O)N1C(=O)c2cccc3cc([N+](=O)[O-])cc(c23)C1=O [Example 26, (Meso)-2,2'-[1,2-ethanediylbis[imino(1-methyl-2,1-ethanediyl)]]-bis[5-nitro-1H-benz[de]isoquinoline-1,3(2H)-dione]methanesulfonate (1:2)]	excellent to outstanding activity	–	0.074 (≈ 0.118 µM)	–	–
C[C@@H](CNCCNC[C@H](C)N1C(=O)c2cccc3cc([N+](=O)[O-])cc(c23)C1=O)N1C(=O)c2cccc3cc([N+](=O)[O-])cc(c23)C1=O [Example 1, (S,S)-2,2'-[1,2-ethanediylbis[imino(1-methyl-2,1-ethanediyl)]]-bis[5-nitro-1H-benz[de]isoquinoline-1,3(2H)-dione]methanesulfonate (1:2)]	excellent to outstanding activity	good to excellent activity (inhibition of ≥90% is condidered good to excellent activity)	0.047 (≈ 0.0752 µM)	–	–
C[C@@H](CN[C@@H](C)CN1C(=O)c2cccc3cc([N+](=O)[O-])cc(c23)C1=O)NC[C@H](C)N1C(=O)c2cccc3cc([N+](=O)[O-])cc(c23)C1=O [Example 43]	–	–	0.04 (≈ 0.0626 µM)	–	–
